Experimental data reported in US20040077580A1, “Antisense modulation of PI3K P85 Expression” (priority 2000, published 2004).
Strand notation (5' to 3'): a small letter for the sugar, then the base; units joined by * are phosphorothioate-linked, units joined directly phosphodiester-linked; [ ] holds rarer units or linkages, { } end groups; capitals alone tell only the bases. e = 2'-O-(2-methoxyethyl) (MOE); [5mC] = 5-methylcytosine; d = 2'-deoxy (DNA)

test system: human PI3K p85 RNA; test: Inhibition of human PI3K p85 mRNA levels by antisense oligonucleotides, real-time quantitative PCR; type: cell-based; details: chimeric phosphorothioate oligonucleotides with 2′-MOE wings and deoxy gap, oligonucleotide 150 nM, averaged from two experiments
Description: Cells were harvested 16 hours after oligonucleotide treatment.
Poly(A)+ mRNA was isolated according to Miura et al., Clin. Chem., 1996, 42, 1758-1764. Other methods for poly(A)+ mRNA isolation are taught in, for example, Ausubel, F. M. et al., Current Protocols in Molecular Biology, Volume 1, pp. 4.5.1-4.5.3, John Wiley & Sons, Inc., 1993. […] 60 μL lysis buffer (10 mM Tris-HCl, pH 7.6, 1 mM EDTA, 0.5 M NaCl, 0.5% NP-40, 20 mM vanadyl-ribonucleoside complex) was added to each well, the plate was gently agitated and then incubated at room temperature for five minutes. 55 μL of lysate was transferred to Oligo d(T) coated 96-well plates (AGCT Inc., Irvine Calif.). Plates were incubated for 60 minutes at room temperature, washed 3 times with 200 μL of wash buffer (10 mM Tris-HCl pH 7.6, 1 mM EDTA, 0.3 M NaCl). After the final wash, the plate was blotted on paper towels to remove excess wash buffer and then air-dried for 5 minutes. 60 μL of elution buffer (5 mM Tris-HCl pH 7.6), preheated to 70° C. was added to each well, the plate was incubated on a 90° C. hot plate for 5 minutes, and the eluate was then transferred to a fresh 96-well plate.
PI3K p85 probes and primers were designed to hybridize to the human PI3K p85 sequence, using published sequence information (GenBank accession number M61906, incorporated herein as SEQ ID NO: 1).
Target sites are indicated by nucleotide numbers, as given in the sequence source reference (Genbank accession no. M61906), to which the oligonucleotide binds. All compounds in Table 1 are oligodeoxynucleotides with phosphorothioate backbones (internucleoside linkages) throughout. […] Data are averages from two experiments. If present, “N.D.” indicates “no data”.
In accordance with the present invention, a second series of oligonucleotides targeted to human PI3K p85 were synthesized. Target sites are indicated by nucleotide numbers, as given in the sequence source reference (Genbank accession no. M61906), to which the oligonucleotide binds.
Cytidine residues in the 2′-MOE wings are 5-methylcytidines.
Data were obtained by real-time quantitative PCR as described in other examples herein and are averaged from two experiments. If present, “N.D.” indicates “no data”.

Substance	% Inhibition of PI3K p85 mRNA levels
28029 (antisense eA*e[5mC]*e[5mC]*eA*dC*dA*dG*dA*dA*dC*dT*dG*dA*dA*eG*eG*eT*eT) [compound 28029]	57%
28053 (antisense eT*eT*e[5mC]*eT*dG*dG*dC*dA*dC*dT*dT*dT*dC*dT*eA*eT*eG*eA) [compound 28053]	0%
28025 (antisense eG*eT*eT*e[5mC]*dA*dT*dT*dC*dC*dA*dT*dT*dC*dA*eG*eT*eT*eG) [compound 28025]	22%
28045 (antisense eG*e[5mC]*e[5mC]*e[5mC]*dT*dT*dT*dG*dC*dT*dT*dT*dC*dC*eA*eG*eA*eG) [compound 28045]	0%
28056 (antisense e[5mC]*e[5mC]*eA*eA*dC*dA*dA*dA*dA*dC*dA*dG*dT*dC*e[5mC]*eA*eA*eA) [compound 28056]	15%
28021 (antisense eG*eT*eA*eA*dG*dT*dC*dC*dA*dG*dG*dA*dG*dA*eT*eA*eG*e[5mC]) [compound 28021]	43%
28027 (antisense eT*eT*eA*eT*dT*dC*dA*dT*dA*dC*dC*dG*dT*dT*eG*eT*eT*eG) [compound 28027]	45%
28028 (antisense eA*eT*eT*e[5mC]*dA*dG*dC*dA*dT*dT*dT*dT*dG*dT*eA*eA*eG*eG) [compound 28028]	0%
28042 (antisense e[5mC]*eT*eT*eT*dA*dC*dT*dT*dC*dG*dC*dC*dG*dT*e[5mC]*e[5mC]*eA*e[5mC]) [compound 28042]	0%
28036 (antisense eT*e[5mC]*eA*eA*dC*dT*dT*dC*dT*dT*dT*dT*dG*dC*e[5mC]*eG*eA*eA) [compound 28036]	59%
28024 (antisense eG*eG*e[5mC]*eT*dG*dC*dT*dG*dA*dG*dA*dA*dT*dC*eT*eG*eA*eA) [compound 28024]	59%
28037 (antisense eT*eT*eG*e[5mC]*dC*dC*dA*dA*dC*dC*dA*dC*dT*dC*eG*eT*eT*e[5mC]) [compound 28037]	28%
28038 (antisense eG*eT*e[5mC]*eT*dT*dC*dA*dG*dT*dG*dT*dT*dT*dT*e[5mC]*eA*eT*eT) [compound 28038]	0%
28051 (antisense eG*eA*e[5mC]*eG*dT*dG*dC*dC*dT*dT*dT*dC*dT*dG*e[5mC]*eT*eA*e[5mC]) [compound 28051]	53%
28017 (antisense eA*eT*e[5mC]*eT*dT*dC*dT*dT*dC*dT*dC*dT*dT*dT*e[5mC]*e[5mC]*eT*eT) [compound 28017]	59%
28050 (antisense eT*eG*eT*e[5mC]*dT*dG*dG*dG*dT*dC*dC*dA*dC*dC*eG*eT*eG*e[5mC]) [compound 28050]	57%
28049 (antisense e[5mC]*e[5mC]*eA*eG*dG*dC*dT*dA*dA*dA*dC*dC*dA*dG*eG*e[5mC]*eT*eG) [compound 28049]	24%
28030 (antisense eA*eT*eT*eT*dC*dC*dT*dG*dG*dG*dA*dT*dG*dT*eG*e[5mC]*eG*eG) [compound 28030]	74%
28035 (antisense eA*eT*eT*eG*dG*dT*dC*dT*dC*dT*dC*dG*dT*dC*eT*eT*eT*e[5mC]) [compound 28035]	0%
28020 (antisense eA*eA*eT*eT*dC*dT*dG*dC*dC*dA*dG*dG*dT*dT*eG*e[5mC]*eT*eG) [compound 28020]	12%

same assay, conditions: phosphorothioate oligodeoxynucleotides, oligonucleotide 150 nM, averages from two experiments

Substance	% Inhibition of PI3K p85 mRNA levels
27978 (antisense GCTTCCTGTCCATCACTG; DNA, all phosphorothioate, methylation of C not given here) [compound 27978]	29%
27996 (antisense TCAACTTCTTTTGCCGAA; DNA, all phosphorothioate, methylation of C not given here) [compound 27996]	38%
27990 (antisense ATTTCCTGGGATGTGCGG; DNA, all phosphorothioate, methylation of C not given here) [compound 27990]	52%
28014 (antisense CCTTCAGCAAAACAAAAC; DNA, all phosphorothioate, methylation of C not given here) [compound 28014]	24%
27982 (antisense ATTTCACTGTAAACGGCT; DNA, all phosphorothioate, methylation of C not given here) [compound 27982]	19%
28010 (antisense TGTCTGGGTCCACCGTGC; DNA, all phosphorothioate, methylation of C not given here) [compound 28010]	55%
28009 (antisense CCAGGCTAAACCAGGCTG; DNA, all phosphorothioate, methylation of C not given here) [compound 28009]	57%
27992 (antisense TTTCTCATTGCCTTCACG; DNA, all phosphorothioate, methylation of C not given here) [compound 27992]	0%
28002 (antisense CTTTACTTCGCCGTCCAC; DNA, all phosphorothioate, methylation of C not given here) [compound 28002]	41%
28003 (antisense AAAGCCATAGCCAGTTGC; DNA, all phosphorothioate, methylation of C not given here) [compound 28003]	0%
27993 (antisense ATCCTTTGTATTTCTTTC; DNA, all phosphorothioate, methylation of C not given here) [compound 27993]	15%
27985 (antisense GTTCATTCCATTCAGTTG; DNA, all phosphorothioate, methylation of C not given here) [compound 27985]	13%
27995 (antisense ATTGGTCTCTCGTCTTTC; DNA, all phosphorothioate, methylation of C not given here) [compound 27995]	0%
28007 (antisense AAAGAAGGGATAAGCACT; DNA, all phosphorothioate, methylation of C not given here) [compound 28007]	7%
28004 (antisense ACATTGAGGGAGTCGTTG; DNA, all phosphorothioate, methylation of C not given here) [compound 28004]	0%
28011 (antisense GACGTGCCTTTCTGCTAC; DNA, all phosphorothioate, methylation of C not given here) [compound 28011]	28%
27994 (antisense TTCAAGTCTTCTTCCAAT; DNA, all phosphorothioate, methylation of C not given here) [compound 27994]	15%
27987 (antisense TTATTCATACCGTTGTTG; DNA, all phosphorothioate, methylation of C not given here) [compound 27987]	4%
27983 (antisense GCTTGAAGAAATGTTTTA; DNA, all phosphorothioate, methylation of C not given here) [compound 27983]	0%
27979 (antisense TTCAATGGCTTCCACGAG; DNA, all phosphorothioate, methylation of C not given here) [compound 27979]	6%
28008 (antisense CTGCCTCTCTCTCCTCCG; DNA, all phosphorothioate, methylation of C not given here) [compound 28008]	0%
27991 (antisense CCGCTCTTGGGTCTGGCA; DNA, all phosphorothioate, methylation of C not given here) [compound 27991]	71%
27986 (antisense dA*dG*dT*dA*dG*dG*dT*dT*dT*dT*dG*dG*dT*dG*dG*dT*dT*dT) [compound 27986]	0%
27980 (antisense AATTCTGCCAGGTTGCTG; DNA, all phosphorothioate, methylation of C not given here) [compound 27980]	0%
